Test system: hypertensive subjects
Experiment: Seated automated office blood pressure (AOBP) in randomized, placebo-controlled, dose-ranging study
Assay type: in vivo, human
Conditions: Part 1, 12.5 mg QD
Experimental: A randomized, double-blinded, placebo-controlled, dose-ranging, multicenter study was conducted to evaluate the effect of orally administered Compound A HBr on blood pressure for the treatment of hypertension in male and female subjects ≥18 years of age.
The study consists of two parts. For enrollment into Part 1 of the study, a subject's value of plasma renin activity (PRA) must be ≤1 ng/mL/h based on morning measurement. If the value of PRA >1 ng/mL/h based on morning measurement, then subjects may be eligible to enter Part 2 of the study.
For Part 1, 163 enrolled subjects ≥18 years of age were randomized into 6 equal treatment groups (1:1:1:1:1:1) to 12.5 mg BID, 25 mg BID, 12.5 mg QD, 50 mg QD, 100 mg QD, or placebo. After a review of interim clinical data, the 2 lowest dose levels (12.5 mg QD and 12.5 mg BID) were stopped for future randomization due to a lack of consistent meaningful reduction of blood pressure, but the patients randomized to that point remained in the study through completion. Thus, after the review of interim clinical data, subjects were randomized into 4 equal treatment groups (1:1:1:1) to 25 mg BID, 50 mg QD, 100 mg QD, or placebo.
For Part 2, 36 enrolled subjects ≥18 years of age were randomized (5:1) to either 100 mg QD Compound A HBr or placebo such that the Compound A HBr treatment group consisted of approximately 30 subjects and the placebo treatment group will consist of approximately 6 subjects.
Subjects orally administered the assigned study drug (Compound A HBr or placebo) according to the assigned dosing regimen for 8 weeks beginning on Study Day 1. All subjects in Part 1 (regardless of dosing group) received BID dosing to preserve the integrity of the blind; active drug is administered as the morning dose for all QD dose groups. Subjects returned to the research facility or were seen by the clinical investigator or approved home health care professional at the end of Study Weeks 1, 2, 3, 4, 5, 6, 7, and 8 (±2 days) for protocol-defined efficacy and safety assessments and procedures, assessment of adverse events (AEs), and confirmation of compliance with study drug usage. Subjects also completed a telephone visit and blood pressure (BP) check at home approximately 3 days post last dose of study drug. Subjects attended up to 14 full clinic visits, including a pre-Screening visit, a Screening/start of Placebo Run-in visit, a second visit during Placebo Run-in, a clinic visit to initiate the ABPM procedure, a Randomization visit, 8 weekly visits during double-blind treatment, and an end-of-study visit scheduled 4 weeks after the last study treatment for final efficacy and safety assessments.
An automated oscillometric sphygmomanometer device was used to measure the subjects' systolic and diastolic blood pressure in office after approximately 5 minutes of rest in the seated position.
The primary endpoint is the change in office-measured (mean of last 2 of 5 unattended measurements using an automated oscillometric sphygmomanometer device after approximately 5 minutes of rest in the seated position) systolic blood pressure (SBP) from baseline to the end of Study Week 8.
Secondary endpoints of this study were: • (a) Change in 24-hour ambulatory blood pressure monitoring (ABPM) parameters (systolic and diastolic) from baseline to the end of Study Week 7. • (b) Change in office-measured SBP from baseline to the end of Study Weeks 1, 2, 3, 4, 5, 6, and 7. • (c) Change in office-measured diastolic blood pressure (DBP) from baseline to the end of Study Weeks 1, 2, 3, 4, 5, 6, 7, and 8. • (d) Proportion of subjects who achieve office-measured BP of ≤130/80 mm Hg by the end of Study Week 8.

CC(=O)N[C@H]1CC[C@H](NC(=O)CN2CCN(c3nncc(-c4ccc(C)cc4)n3)CC2)CC1 [Compound A HBr]
Mean (SD) Automated Office-Measured Systolic Blood Pressure at Wk 8 (Age 65-79 yr): 135.63 (15.23) mmHg
Mean (SD) Change from Baseline at Week 8 in Automated Office-Measured Diastolic Blood Pressure (Age 65-79 yr): −5.06 (7.49) mmHg
Mean (SD) Change from Baseline at Week 8 in Automated Office-Measured Systolic Blood Pressure (Age 65-79 yr): −8.50 (14.04) mmHg
Mean (SD) Automated Office-Measured Diastolic Blood Pressure at Wk 8 (Age <65 yr): 82.63 (20.67) mmHg
Mean (SD) Automated Office-Measured Systolic Blood Pressure at Wk 8 (Age <65 yr): 144.88 (25.16) mmHg
Mean (SD) Change from Baseline at Week 8 in Automated Office-Measured Diastolic Blood Pressure (Age <65 yr): −2.19 (9.98) mmHg
Mean (SD) Change from Baseline at Week 8 in Automated Office-Measured Systolic Blood Pressure (Age <65 yr): −5.75 (22.93) mmHg
Mean (SD) Automated Office-Measured Diastolic Blood Pressure at Wk 8 (Age ≥80 yr): 93.50 (37.48) mmHg
Mean (SD) Automated Office-Measured Systolic Blood Pressure at Wk 8 (Age ≥80 yr): 145.00 (42.43) mmHg
Mean (SD) Change from Baseline at Week 8 in Automated Office-Measured Diastolic Blood Pressure (Age ≥80 yr): 13.00 (37.48) mmHg
Mean (SD) Change from Baseline at Week 8 in Automated Office-Measured Systolic Blood Pressure (Age ≥80 yr): −4.75 (39.95) mmHg
Mean (SD) Automated Office-Measured Diastolic Blood Pressure at Wk 8 (BMI 25−30 kg/m^2): 76.00 (6.22) mmHg
Mean (SD) Change from Baseline at Week 8 in Automated Office-Measured Diastolic Blood Pressure (BMI 25−30 kg/m^2): −4.64 (7.81) mmHg
Mean (SD) Automated Office-Measured Diastolic Blood Pressure at Wk 8 (BMI <25 kg/m^2): 73.00 (NE) mmHg
Mean (SD) Change from Baseline at Week 8 in Automated Office-Measured Diastolic Blood Pressure (BMI <25 kg/m^2): −1.50 (NE) mmHg
Mean (SD) Automated Office-Measured Diastolic Blood Pressure at Wk 8 (BMI >30 kg/m^2): 86.10 (21.92) mmHg
Mean (SD) Change from Baseline at Week 8 in Automated Office-Measured Diastolic Blood Pressure (BMI >30 kg/m^2): 0.20 (16.85) mmHg
Mean (SD) Automated Office-Measured Systolic Blood Pressure at Wk 8 (BMI at baseline 25-30 kg/m^2): 134.14 (18.96) mmHg
Mean (SD) Change from Baseline at Week 8 in Automated Office-Measured Systolic Blood Pressure (BMI at baseline 25-30 kg/m^2): −7.71 (19.07) mmHg
Mean (SD) Automated Office-Measured Systolic Blood Pressure at Wk 8 (BMI at baseline <25 kg/m^2): 137.00 (NE) mmHg
Mean (SD) Change from Baseline at Week 8 in Automated Office-Measured Systolic Blood Pressure (BMI at baseline <25 kg/m^2): −11.50 (NE) mmHg
Mean (SD) Automated Office-Measured Systolic Blood Pressure at Wk 8 (BMI at baseline >30 kg/m^2): 145.80 (24.73) mmHg
Mean (SD) Change from Baseline at Week 8 in Automated Office-Measured Systolic Blood Pressure (BMI at baseline >30 kg/m^2): −5.80 (22.31) mmHg
Mean (SD) Automated Office-Measured Diastolic Blood Pressure at Wk 8 (Race Black or AA): 85.00 (19.41) mmHg
Mean (SD) Automated Office-Measured Systolic Blood Pressure at Wk 8 (Race Black or AA): 147.50 (22.06) mmHg
Mean (SD) Change from Baseline at Week 8 in Automated Office-Measured Diastolic Blood Pressure (Race Black or AA): −0.69 (7.56) mmHg
Mean (SD) Change from Baseline at Week 8 in Automated Office-Measured Systolic Blood Pressure (Race Black or AA): −1.44 (16.04) mmHg
Mean (SD) Automated Office-Measured Diastolic Blood Pressure at Wk 8 (Race Other): 78.60 (15.76) mmHg
Mean (SD) Automated Office-Measured Systolic Blood Pressure at Wk 8 (Race Other): 135.40 (21.55) mmHg
Mean (SD) Change from Baseline at Week 8 in Automated Office-Measured Diastolic Blood Pressure (Race Other): −2.65 (17.00) mmHg
Mean (SD) Change from Baseline at Week 8 in Automated Office-Measured Systolic Blood Pressure (Race Other): −11.20 (22.29) mmHg
Mean (SD) Automated Office-Measured Diastolic Blood Pressure at Wk 8 (Seated SBP Tertile High): 84.22 (23.90) mmHg
Mean (SD) Change from Baseline at Week 8 in Automated Office-Measured Diastolic Blood Pressure (Seated SBP Tertile High): −1.06 (18.28) mmHg
Mean (SD) Automated Office-Measured Diastolic Blood Pressure at Wk 8 (Seated SBP Tertile Low): 78.50 (7.48) mmHg
Mean (SD) Change from Baseline at Week 8 in Automated Office-Measured Diastolic Blood Pressure (Seated SBP Tertile Low): −4.17 (6.69) mmHg
Mean (SD) Automated Office-Measured Diastolic Blood Pressure at Wk 8 (Seated SBP Tertile Middle): 79.00 (5.57) mmHg
Mean (SD) Change from Baseline at Week 8 in Automated Office-Measured Diastolic Blood Pressure (Seated SBP Tertile Middle): 0.83 (5.62) mmHg
Mean (SD) Automated Office-Measured Diastolic Blood Pressure at Wk 8 (Sex Female): 75.11 (8.40) mmHg
Mean (SD) Automated Office-Measured Systolic Blood Pressure at Wk 8 (Sex Female): 136.00 (17.23) mmHg
Mean (SD) Change from Baseline at Week 8 in Automated Office-Measured Diastolic Blood Pressure (Sex Female): −4.83 (8.08) mmHg
Mean (SD) Change from Baseline at Week 8 in Automated Office-Measured Systolic Blood Pressure (Sex Female): −9.22 (10.54) mmHg
Mean (SD) Automated Office-Measured Diastolic Blood Pressure at Wk 8 (Sex Male): 87.78 (21.70) mmHg
Mean (SD) Automated Office-Measured Systolic Blood Pressure at Wk 8 (Sex Male): 145.56 (26.10) mmHg
Mean (SD) Change from Baseline at Week 8 in Automated Office-Measured Diastolic Blood Pressure (Sex Male): 1.28 (17.06) mmHg
Mean (SD) Automated Office-Measured Systolic Blood Pressure at Wk 8 (Systolic Blood Pressure Tertile at Baseline High): 146.33 (26.41) mmHg

Reference: patent US20260053811A1, “METHODS OF TREATING HYPERTENSION IN OBESE SUBJECTS” (Mineralys Therapeutics, Inc., priority 2022, published 2026)
